The values that follow come from ChEMBL document CHEMBL1143608, “Novel C-17-heteroaryl steroidal CYP17 inhibitors/antiandrogens: synthesis, in vitro biological activity, pharmacokinetics, and antitumor activity in the LAPC4 human prostate cancer xenograft model” (J Med Chem, 2005).

As a reminder, the inhibition is how much of the control response was suppressed. For orientation: Cmax means the highest concentration seen after dosing. A word on the MRT: it is a mean duration of stay, worked out from the concentration-time curve. A word on the AUC: it is the area under the concentration-time curve, a measure of exposure. A lower AUC goes with low exposure. The term Tmax denotes the time at which the peak concentration occurs. What is called IC50 is the point on the concentration scale where inhibition reaches its midpoint. High values mean lower potency, low ones higher potency. The term half-life denotes how long it takes for the measured level to halve. Lower therefore signals rapid decline.

Series [1] has as its target T1, 3-oxo-5-alpha-steroid 4-dehydrogenase 2 (Homo sapiens) (UniProt P31213).
T1 sequence (whole entry): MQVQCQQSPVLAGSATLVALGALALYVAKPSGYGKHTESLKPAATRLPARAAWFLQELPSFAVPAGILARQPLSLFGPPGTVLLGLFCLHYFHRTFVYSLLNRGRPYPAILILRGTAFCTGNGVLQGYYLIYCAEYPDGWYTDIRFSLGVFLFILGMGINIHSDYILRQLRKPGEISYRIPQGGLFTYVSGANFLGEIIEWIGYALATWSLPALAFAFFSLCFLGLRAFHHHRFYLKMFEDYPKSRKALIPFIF
The series is described as follows: (§1) Inhibition of [1-beta-2beta-3H]- -testosterone binding to human steroid 5-alpha-reductase type 2 of BPH tissue at 10 uM. It is filed as functional.

The target of series [2] is T2, 3-oxo-5-alpha-steroid 4-dehydrogenase 1 (Homo sapiens) (UniProt P18405).
T2 sequence (whole entry): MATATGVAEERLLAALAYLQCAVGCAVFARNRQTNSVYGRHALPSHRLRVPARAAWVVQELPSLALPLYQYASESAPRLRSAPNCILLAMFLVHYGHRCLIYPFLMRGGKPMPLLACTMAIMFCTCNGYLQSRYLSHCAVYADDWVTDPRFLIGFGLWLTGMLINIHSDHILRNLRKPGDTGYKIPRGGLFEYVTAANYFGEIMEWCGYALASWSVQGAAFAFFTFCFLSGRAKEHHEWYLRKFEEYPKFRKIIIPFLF
The series is described as follows: Inhibition of human steroid 5-alpha-reductase type I expressed in DU-145 cells using [1-beta-3H]-androstenedione at a concentration of 10 uM. The series is classed as functional, cell-based.

The nature of series [3]: Volume of distribution at 100 mg/kg upon subcutaneous administration was determined in mouse; n = 5. The series is classed as ADME, organism-based. The arrangement: dose 100 mg/kg, route subcutaneous. The following applies: in vivo, sc.
Series [4] can be described thus: Maximum concentration at 50 mg/kg upon subcutaneous administration was determined in mouse; n = 5. The series is classed as ADME, organism-based. Set-up: dose 50 mg/kg, route subcutaneous. The settings on record: in vivo, sc.
The nature of series [5]: Maximum concentration at 100 mg/kg upon subcutaneous administration was determined in mouse; n = 5. The series is classed as ADME, organism-based. Set-up: dose 100 mg/kg, route subcutaneous. The settings on record: in vivo, sc.
Series [6] is described as follows: […] at 50 mg/kg upon subcutaneous administration was determined in mouse; n = 5. The series is classed as ADME, organism-based. Set-up: dose 50 mg/kg, route subcutaneous. The following applies: in vivo, sc.
A short description of series [7]: Area under curve at 100 mg/kg upon subcutaneous administration was determined in mouse; n = 5. The series is classed as ADME, organism-based. The arrangement: dose 100 mg/kg, route subcutaneous. The settings on record: in vivo, sc.
Series [8] in a line: Time required for maximum concentration at 50 mg/kg upon subcutaneous administration was determined in mouse; n = 5. It is filed as ADME, organism-based. The arrangement: dose 50 mg/kg, route subcutaneous. The following applies: in vivo, sc.
The nature of series [9]: Time required for maximum concentration at 100 mg/kg upon subcutaneous administration was determined in mouse; n = 5. It is filed as ADME, organism-based. Set-up: dose 100 mg/kg, route subcutaneous. The settings on record: in vivo, sc.
Series [10] is described as follows: Volume of distribution at 50 mg/kg upon subcutaneous administration was determined in mouse; n = 5. The series is classed as ADME, organism-based. The arrangement: dose 50 mg/kg, route subcutaneous. The settings on record: in vivo, sc.
Series [11] can be described thus: Half life at 50 mg/kg upon subcutaneous administration was determined in mouse; n = 5. The following applies: in vivo, sc. It is filed as ADME, organism-based. The arrangement: dose 50 mg/kg, route subcutaneous.
A short description of series [12]: Area under curve at 50 mg/kg upon subcutaneous administration was determined in mouse; n = 5. The series is classed as ADME, organism-based. Set-up: dose 50 mg/kg, route subcutaneous. The settings on record: in vivo, sc.
The nature of series [13]: Elimination rate constant at 50 mg/kg upon subcutaneous administration was determined in mouse; n = 5. The series is classed as ADME, organism-based. The arrangement: dose 50 mg/kg, route subcutaneous. The following applies: in vivo, sc.
Series [14] is described as follows: Half life at 100 mg/kg upon subcutaneous administration was determined in mouse; n = 5. The arrangement: dose 100 mg/kg, route subcutaneous. The following applies: in vivo, sc. The series is classed as ADME, organism-based.
Series [15] concerns the target T2, 3-oxo-5-alpha-steroid 4-dehydrogenase 1 (Homo sapiens). The series is described as follows: Inhibition of [1-beta-3H]-androstenedione binding to human steroid 5-alpha-reductase type I expressed in DU-145 cells at 10 uM; ni=no inhibition up to 10 uM. It is filed as functional, cell-based.
The target in series [16] is T3, 3-oxo-5-alpha-steroid 4-dehydrogenase 2 (Homo sapiens, UniProt P31213).
T3 sequence (P31213 whole entry): T1 sequence (whole entry)
Described as §1. It is filed as functional.

Series [17] has as its target T4, 3-oxo-5-alpha-steroid 4-dehydrogenase 1 (Homo sapiens, UniProt P18405).
T4 sequence (P18405 whole entry): T2 sequence (whole entry)
The series is described as follows: Inhibition of [1-beta-3H]-androstenedione binding to human steroid 5-alpha-reductase type I expressed in DU-145 cells at 10 uM. It is filed as functional, cell-based.

Take `C[C@]12CCC(=O)C=C1CCC1C2CC[C@]2(C)C(n3nnc4ccccc43)=CCC12` (some centres not stated): the inhibition turned out to be 56% in series [1] and 21% in series [2].

With `C[C@]12CC[C@H](O)CC1=CCC1C2CC[C@]2(C)C(n3cnc4ccccc43)=CCC12` (some centres not stated), the Vd worked out at 3.27639 L/kg in [3] and 2.09899 L/kg in [10]. The inhibition in [1] came to 53%; in series [2], 4%. For the same compound, the Cmax in series [4] worked out at 16800 ng/mL; in [5] it was 32200 ng/mL. In addition, the MRT in [6] is 65.4 min. Also, the AUC in series [7] was 30200 ng·h/mL; in [12], 24000 ng·h/mL. In addition, the Tmax in [8] and in [9] was 30 min in each case. Further, the T1/2 in series [11] came out at 44.17 min; in [14], 36.6 min. Besides, in series [13], the Kel was 0.942 h⁻¹.

As for `C[C@]12CC[C@H](O)CC1=CCC1C2CC[C@]2(C)C(n3nnc4ccccc43)=CCC12` (some centres not stated), the inhibition result was “No inhibition” in series [15] and 17% in [1].

Turning to `C[C@]12CCC(=O)C=C1CCC1C2CC[C@]2(C)C(n3cnc4ccccc43)=CCC12` (some centres not stated), the values for the IC50 in [16] and in series [17] were 480 nM and 770 nM, respectively. In series [4], this compound yielded a Cmax of 5150 ng/mL. This compound also had an MRT in series [6] of 80 min. The Tmax in series [8] was 60 min. In addition, in series [10], the Vd was 4.207 L/kg. In series [11], this compound showed a half-life of 37.9 min. This compound also showed an AUC in series [12] of 10800 ng·h/mL. In addition, the k el in series [13] is 0.000305 s⁻¹.
